# US6696303B2, “Identifying substances using cells that express p75NTR” (Trustees of Boston University, priority 1996, dated 2004)
# How the values were obtained:
# [1] = tested on: melanocytes; test: NGF supplementation of β-amyloid-treated melanocytes; type: cell-based, human; conditions: for percent of live cells (spread): 48 hours
# Protocol: Melanocytes were maintained as above in hormone supplemented medium lacking hydrocortisone. Cells were supplemented with 25 μM of β-amyloid 1-40 in the presence of 50 ng/ml NGS or diluent.
# Photographs of representative fields were obtained and the percent of the live cells (spread) was determined 48 hours after addition of β-amyloid and NFG or β-amyloid and diluent.
# At least 400 cells were counted in each condition.
# [2] = tested on: normal human melanocytes; test: melanocyte cell yield and morphology after β-amyloid supplementation; type: cell-based
# Protocol: To determine the effect of β-amyloid on normal human melanocytes, cultures were supplemented with increasing concentrations (0.025-50 uM) of HPLC-purified β-amyloid fragment corresponding to amino acids 1-40. A peptide containing the first 40 amino acids synthesized in reverse order (40-1) was used as a negative control.
# Melanocytes were maintained in serum free Medium 199 (Gibco BRL Gaithersburg, Md.) supplemented with epidermal growth factor (10 ng/ml) (Collaborative Research), insulin (10 μg/ml) (Sigma), triiodothyronine (10^−9 M) (Collaborative Research), transferrin (10 μg/ml) (Sigma), hydrocortisone (1.4×10^−6 M) (Calbiochem), cholera toxin (10^−9 M) (Calbiochem) and basic fibroblast growth factor (basic FGF) (10 ng/ml) (Collaborative Research). Two days after plating cells were supplemented with increasing concentrations of β-amyloid 1-40 or the control peptide 40-1 (0-50 μM) (Bachem Calif., Torrance, Calif.).
# [3] = tested on: Bax; test: Bax level in melanocytes by Western blot with anti-Bax antibody; type: cell-based, human; conditions: for increased Bax level as compared to the 40-1 peptide: 25 μM, four days; for Bax induction: 25 uM, within 4 days, vs 40-1 control fragment or irrelevant protein
# Protocol: To investigate the mechanism of β-amyloid-mediated melanocyte death, Bax levels in melanocytes treated with 25 uM of 1-40 or 25-35 β-amyloid peptides was examined. Within 4 days of treatment, Bax was induced 3 fold in melanocytes stimulated either with the β-amyloid 1-40 or 25-35 fragments as compared to melanocytes treated with the 40-1 control fragment or an irrelevant HPLC purified protein of similar size.
# Melanocytes were maintained as above. Four days after addition of 25 μM of β-amyloid fragments 1-40, 40-1 or 25-35; or 25 μM of HPLC-purified bovine corticotropin releasing factor (CRF) (Bachem Calif.) (MW 4.7 kD) as an additional negative control, cells were extracted in RIPA buffer (50 mM Tris-HCl, 0.15 M NaCl, 0.5% sodium deoxycholate, 1% TRITON®X-100) in the presence of 1 μ/ml aprotinin and 75 μg/ml phenylmethylsulfonyl fluoride (PMSF), sonicated for 1-3 seconds and centrifuged. 40 μg of protein per lane were separated on 12% SDS/PAGE and blotted onto nitrocellulose paper (overnight, 25V). To verify equal loading a duplicate 13% SDS/PAGE was performed and stained with Coomasie Blue R250 stain. Blots were incubated with anti-Bax antibody (1:1000 dilution) (primary antibody), followed by horseradish peroxidase-conjugated goat anti-rabbit IgG (secondary antibody) (1:500 dilution) (Bio-Rad Laboratories, Hercules, Calif.). Bound antibodies were detected using enhanced chemiluminescence kit (Amersham Corp.). Autoradiograms were scanned into a Macintosh II is computer using the Of to TM program (Light source Computer Images, Inc.). Scan analysis was performed with manual definition of bands using Scan Analysis TM 68000 program (Biosoft, Cambridge, UK).
# [4] = tested on: p75^NTR 3T3 cells; test: cell yield of p75NTR 3T3 cells with β-amyloid and cyclic peptide; type: cell-based
# Protocol: p75^NTR 3T3 cells were maintained in serum free medium supplemented with 200 nM β-amyloid 1-40, 200 nM cyclic peptide […], (SEQ ID NO: 4) 20 nM β-amyloid 1-40 and 200 nM cyclic peptide or diluent alone.
# [5] = target: T1, p75^NTR (Homo sapiens, UniProt P08138); test: cross linking of 125I β-amyloid 1-40 and immunoprecipitation with anti p75NTR antibodies; type: binding; conditions: p75NTR-NIH 3T3 cells, disuccinimidyl suberate cross linking
# T1 construct: expressed in transfected cells; host or cells: NIH 3T3 fibroblasts, permanently transfected (p75NTR-NIH 3T3 cells)
# T1 sequence (P08138 29-427): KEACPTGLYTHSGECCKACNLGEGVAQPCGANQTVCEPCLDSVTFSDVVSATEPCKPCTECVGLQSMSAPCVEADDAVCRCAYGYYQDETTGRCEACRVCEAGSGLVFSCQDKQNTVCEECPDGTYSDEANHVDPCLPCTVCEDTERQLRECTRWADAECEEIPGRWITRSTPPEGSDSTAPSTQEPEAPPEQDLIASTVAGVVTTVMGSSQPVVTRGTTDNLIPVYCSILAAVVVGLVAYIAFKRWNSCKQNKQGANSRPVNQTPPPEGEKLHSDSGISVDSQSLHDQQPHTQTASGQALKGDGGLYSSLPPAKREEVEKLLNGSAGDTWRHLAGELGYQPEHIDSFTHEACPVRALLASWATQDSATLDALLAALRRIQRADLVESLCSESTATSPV
# Protocol: p75^NTR-NIH 3T3 cells were maintain in DMEM supplemented with 10% FBS in the presence of penicillin (45 ng/ml), streptomycin (68 ng/ml), and hygromycin B (17.5 ng/ml). At 80% confluence cells were lifted from the dish with EDTA and incubated in suspension with 5 uCi ^125I labeled β-amyloid 1-40 at 4° C. for 1 hour in DMEM. After incubation, 1 mM of disuccinimidyl suberate was added for 30 minutes. Following centrifugation cells were lysed with RIPA buffer (50 mM Tris HCl, pH 8.0, 0.15 M NaCl 0.5% sodium deoxycholate 4, 5 mM MgC2, 1% TRITON®X-100, 1 mM phenylmethylsulfonylfluoride, and 1 μg/ml aprotinin), sonicated for 1-3 seconds and immunoprecipitated with anti p75^NTR antibodies (mouse monoclonal IgGl, Cedarlane Laboratories Ltd., Ontario, Canada) or mouse IgG as control for 16 hours at 4° C. in the presence of 15 ul of protein G plus protein A agarose and 1M NaCl adjusted to pH 8.0. After several washes with 20 mM Tris HCl, pH 8.0, 1M NaCl, 5mM MgCl2, 0.2% TRITON®X-100 and 1 mM PMSF, immunoprecipitates were separated over 8% PAGE and subjected to autoradiography. A band of appropriate molecular weight was present only in lysates immunoprecipitated with anti p75^NTR antibodies and not lysates immunoprecipitated with irrelevant mouse IgG.
# [6] = target: T1, p75^NTR; test: receptor affinity for p75NTR; type: binding
# [7] = target: T1, p75^NTR; test: competition for 125I labeled β-amyloid 1-40 binding on p75NTR-NIH 3T3 cells; conditions: NGF 100 ng/ml; 2 hours at 4° C.
# Excerpt: After rinsing in PBS, cells were lysed in 1N NaOH and equal amounts of protein from cell lysates were subject to counting.
# […] (SEQ ID NO: 4). Lysates from 1.5×10^5 cells were subjected to counting.
# [8] = tested on: p75^NTR; test: UV irradiated melanocytes treated with anti p75NTR antisense oligonucleotides; type: cell-based
# Protocol: Melanocytes were UV irradiated with 25 mJ/cm^2 and then supplemented either with 10 μM anti p75^NTR anti sense phosphothioate oligonucleotides ([…] SEQ ID NO.: 5) directed against the 3′ end of the p75^NTR coding region, or the same concentration of sense oligonucleotides as a negative control.
# Immunohistochemical analysis confirmed that p75^NTR was not expressed in cells treated with anti-p75^NTR anti-sense oligonucleotides, but was expressed in the sense treated cells. Within 24 hours after irradiation; the following was observed the following were observed: […]
# [9] = target: T1, p75^NTR; conditions: lysine at position 34 replaced by alanine; vs NGF; cited from earlier work
# [10] = ≧25 μM, compared to control cultures
# [11] = NGF supplementation, preliminary data
substance,measurement,setting,value
β-amyloid 1-40: HPLC-purified β-amyloid fragment corresponding to amino acids 1-40,percent of live cells (spread),[1]; 25 μM β-amyloid 1-40 and diluent,77±8.5%
same,effect on cell yield,"[2]; 0-50 μM, three to five days after addition",dose dependent decrease of cell yield
same,decrease in cell yield,"[2]; 25-30 uM, compared to cell yield before β-amyloid addition (100%)",59%±17%
same,dendrite outgrowth,[2]; low concentrations (≦1 μM),extensive outgrowth of dendrites
same,decrease of melanocyte yield,"[2]; within 3-5 days, total of four experiments",> 50%
same,proportion of apoptotic cells,[2]; [10],significantly increases the proportion of apoptotic cells
same,increased Bax level as compared to the 40-1 peptide,[3],270%
same,Bax induction,[3],3 fold
same,upregulation of Bax protein expression,[3]; [10],approximately three fold
same,cell yield compared to all other cultures,"[4]; 200 nM, serum free medium, up to 120 hours",prominent decrease of cell yield
same,reduction of cell yields,[4]; β-amyloid 200 nM,~60%
same,binding to p75NTR (autoradiogram of immunoprecipitates),[5],protein band of 75-80 kD in size only in lysates immunoprecipitated with anti p75^NTR antibodies
25-35: β-amyloid peptide fragment of amino acid residues 25-35 (GSNKGAIIGLM),increased Bax level as compared to the 40-1 peptide,[3],160%
same,Bax induction,[3],3 fold
"NGF: Nerve growth factor, physiologic ligand for p75NTR",percent of live cells (spread),[1]; 25 μM β-amyloid 1-40 and 50 ng/ml NGF,96±1.4%
same,cell yields of β-amyloid-supplemented melanocytes,"[1]; NGF added, within 3-5 days",enhanced cell yields
same,Bcl-2 levels,[1]; [11],increases Bcl-2 levels
same,β-amyloid-induced Bax upregulation,[1]; [11],decreases the β-amyloid-induced Bax upregulation
same,higher receptor affinity than β-amyloid,[6],2-3 fold
same,maximum inhibition of 125I labeled β-amyloid binding,[7],38%
same,appearance of cells within 24 hours after irradiation,[8]; with 50 ng/ml NGF,appear healthy
"CTCCCACTCGTCATTCGAC (all phosphorothioate, sugars by position and methylation of C not given here) [anti-sense oligonucleotides, anti p75NTR anti sense phosphothioate oligonucleotides directed against the 3′ end of the p75NTR coding region]",p75NTR expression (immunohistochemical analysis),"[8]; 10 μM oligonucleotide, melanocytes UV irradiated with 25 mJ/cm^2",not expressed
same,appearance of cells within 24 hours after irradiation,[8]; diluent instead of NGF,appear as healthy as cells provided NGF lacking p75^NTR
same,appearance of cells within 24 hours after irradiation,[8]; with 50 ng/ml NGF,do not appear as healthy or numerous as cells expressing both receptors in the presence of NGF
mutant NGF: NGF in which lysine (K) at position 34 is replaced by alanine (A),lower affinity of binding to p75NTR,[9],50%
